Data as given in patent US20250222116A1, “PARP-1 DEGRADATION AGENT AND USE THEREOF” (XIZANG HAISCO PHARMACEUTICAL CO., LTD., priority 2021, published 2025).

Tests used:
[1] = Pharmacokinetic test in rats; format: in vivo, SD rats
Method: 7.1 Experimental animals: male SD rats, about 220 g, 6-8 weeks old, 6 rats/compound, purchased from Chengdu Ddossy Experimental Animals Co., Ltd.
7.2 Experimental design: on the day of the experiment, 12 SD rats were randomly grouped according to their body weights. The animals were fasted with water available for 12 to 14 h one day before the administration, and were fed 4 h after the administration.
(§1) Before and after the administration, 0.15 mL of blood was taken from the orbit of the animals under isoflurane anesthesia and placed in an EDTAK2 centrifuge tube. The blood was centrifuged at 5000 rpm and 4° C. for 10 min to collect plasma. The blood collection time points for the intravenous administration group and intragastric administration group were: 0, 5 min, 15 min, 30 min, 1 h, 2 h, 4 h, 6 h, 8 h, and 24 h. Before analysis and detection, all samples were stored at −80° C. The samples were analyzed quantitatively by LC-MS/MS.

[2] = Pharmacokinetic test in mice; format: in vivo, ICR mice
Method: 8.1 Experimental animals: male ICR mice, 20 to 25 g, 18 mice/compound, purchased from Chengdu Ddossy Experimental Animals Co., Ltd.
8.2 Experimental design: on the day of the experiment, 36 ICR mice were randomly grouped according to their body weights. The animals were fasted with water available for 12 to 14 h one day before the administration, and were fed 4 h after the administration.
as §1, with “0.06” for “0.15”, “intravenous” for “intravenous administration”, “0 min,” for “0,”

[3] = test system: breast tumor cells MDA-MB-436; assay: MDA-MB-436 cell activity test (CellTiter-Glo, 7 days); format: cell-based, human; conditions: Homo sapiens
Method: Breast tumor cells MDA-MB-436 were purchased from ATCC, the culture medium was Leibovitz's L-15+10% FBS, and the cells were cultured in a CO2-free incubator at 37° C. On day 1, the cells in the exponential growth phase were collected, and the cell suspension was adjusted to 4000 cells/135 μL with the culture medium. 135 μL of the cell suspension was added to each well of a 96-well cell culture plate and incubated overnight. On day 2, compounds at different concentrations were added, and the plate was placed in the incubator and incubated for 7 days. After the culture was completed, according to operation instructions for a CellTiter-Glo kit (Promega, G7573), 75 μL of CTG solution, which was already pre-melted and equilibrated to room temperature, was added to each well, and the mixture was uniformly mixed for 2 minutes using a microplate shaker. The plate was placed at room temperature for 10 minutes, and then […] signal values were determined using an Envision2104 plate reader (PerkinElmer). The inhibition rate was calculated using formula (1), where RLUcompound was the readout of the drug treated group, RLUcontrol was the average value of the solvent control group, and RLUblank was the average value of the cell-free well. The IC50 value was calculated using GraphPad Prism software.

[4] = biological target: T1, PARP1 (Homo sapiens (Human), UniProt P09874); assay: PARP1 protein expression level in MDA-MB-436 cells; format: cell-based; conditions: 100 nM, 24 hours
Method: (§2) MDA-MB-436 cells were placed in a complete DMEM medium (supplemented with 15% FBS; 10 μg/mL Insulin; 16 μg/mL Glutathione and 1% penicillin-streptomycin solution), and cultured at 37° C. under CO2-free conditions. The cells in the logarithmic growth phase were collected, the cell density was adjusted to 2×10^5 cells/well with the culture medium, and the cells were added to a 6-well cell culture plate at a volume of 1 mL/well. The compound to be tested was prepared to 2-fold the final concentration, 1 mL of the compounds at different concentrations were added to administration wells, a medium containing 0.2% DMSO was added to control wells, and the plate was incubated for 24 hours at 37° C. The cells were collected into a 1.5 mL centrifuge tube, 25 μL of RIPA lysis buffer (containing 1× protease inhibitor cocktail) was added, and the cells were lysed on ice for 15 minutes and centrifuged at 12000 rpm/min at 4° C. for 10 minutes. The supernatant was collected and the protein content was determined using the BCA method. The protein sample to be tested was diluted to 0.8 mg/mL, PARP1 was detected using a fully automated protein expression quantitative analyzer (ProteinSimple), and the internal reference protein was 3-actin (both antibodies were from CST). The software (Compass for SW) of the fully automated protein expression quantitative analyzer was used to process the raw data and calculate the peak area and the PARP1 expression rate relative to the control group.
as §2, with “L-15” for “DMEM”, “mL/well and cultured overnight. On day 2, the” for “mL/well. The”, “group. DC50 values were calculated using a four-parameter non-linear fitting model in Graphpad 8.3.0 software.” for “group.”

[5] = biological target: T1, PARP1; assay: PARP1 protein expression level in MDA-MB-231 cells; format: cell-based; conditions: 24 hours
Method: The cells were collected into a 1.5 mL centrifuge tube, 25 μL of RIPA lysis buffer (containing 1× protease inhibitor cocktail) was added, and the cells were lysed on ice for 15 minutes and centrifuged at 12000 rpm/min at 4° C. for 10 minutes. The supernatant was collected and the protein content was determined using the BCA method. […] DC50 values were calculated using a four-parameter non-linear fitting model in Graphpad 8.3.0 software.

[6] = male, SD, rat, iv, i.v. 2.5 mg/kg, plasma
[7] = male, ICR, mouse, iv, i.v. 2.5 mg/kg, plasma

T1 sequence (P09874 whole entry): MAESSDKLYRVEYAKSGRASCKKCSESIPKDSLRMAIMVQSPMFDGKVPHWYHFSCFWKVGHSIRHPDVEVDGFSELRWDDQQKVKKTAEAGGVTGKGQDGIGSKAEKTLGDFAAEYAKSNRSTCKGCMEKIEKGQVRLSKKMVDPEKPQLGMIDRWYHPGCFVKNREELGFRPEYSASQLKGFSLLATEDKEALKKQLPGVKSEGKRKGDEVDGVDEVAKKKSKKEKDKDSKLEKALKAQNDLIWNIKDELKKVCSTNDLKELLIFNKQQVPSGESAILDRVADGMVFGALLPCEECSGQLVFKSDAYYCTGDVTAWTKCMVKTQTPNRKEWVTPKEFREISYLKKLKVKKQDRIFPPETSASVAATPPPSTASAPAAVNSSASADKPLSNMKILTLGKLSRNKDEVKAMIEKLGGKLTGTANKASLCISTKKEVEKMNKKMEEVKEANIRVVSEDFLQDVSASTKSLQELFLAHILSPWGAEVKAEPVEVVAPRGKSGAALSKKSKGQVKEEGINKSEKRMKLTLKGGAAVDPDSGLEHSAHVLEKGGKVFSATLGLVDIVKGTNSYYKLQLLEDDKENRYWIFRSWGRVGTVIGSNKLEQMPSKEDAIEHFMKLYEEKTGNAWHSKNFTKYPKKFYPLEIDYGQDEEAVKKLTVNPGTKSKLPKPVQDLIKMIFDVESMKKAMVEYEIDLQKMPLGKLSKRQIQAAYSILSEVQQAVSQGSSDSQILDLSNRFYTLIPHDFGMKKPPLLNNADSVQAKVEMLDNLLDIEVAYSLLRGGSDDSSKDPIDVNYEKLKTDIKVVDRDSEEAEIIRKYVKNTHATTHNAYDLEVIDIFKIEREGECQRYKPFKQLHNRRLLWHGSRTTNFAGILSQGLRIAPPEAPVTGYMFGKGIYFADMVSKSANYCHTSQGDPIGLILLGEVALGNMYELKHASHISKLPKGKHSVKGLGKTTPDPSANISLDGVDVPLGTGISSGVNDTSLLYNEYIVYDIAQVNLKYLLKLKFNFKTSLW

| pharmacokinetic characteristics [1] | F ([1]; i.g. 10 mg/kg) | AUC(0-t) [1, 6] | clearance [1, 6] | Vd ([1]; male, SD, rat, iv, i.v. 2.5 mg/kg, plasma, read-out: Vdss) | AUC(0-t) ([1]; male, SD, rat, po, i.g. 10 mg/kg, plasma) | pharmacokinetic characteristics [2] | F ([2]; i.g. 10 mg/kg) | AUC(0-t) [2, 7] | clearance [2, 7] | Vd ([2]; male, ICR, mouse, iv, i.v. 2.5 mg/kg, plasma, read-out: Vdss) | AUC(0-t) ([2]; male, ICR, mouse, po, i.g. 10 mg/kg, plasma) | IC50 ([3]; MDA-MB-436, 168 h, MDA-MB-436 cells, 7 days incubation, read-out: IC50 (nM), MDA-MB-436 cell inhibitory activity) | PARP1 degradation rate @ 100 nM [4] | DC50 [5] | SMILES | inhibition at 10 µM ([3]; MDA-MB-436, MDA-MB-436 cells, 10 μM, read-out: Max inh. % 10 μM) |
| --- | --- | --- | --- | --- | --- | --- | --- | --- | --- | --- | --- | --- | --- | --- | --- | --- |
| good pharmacokinetic characteristics | 6.2% | 51400 ng·h/mL | 0.713 mL/min/kg | 0.366 L/kg | 12800 ng·h/mL | good pharmacokinetic characteristics | 15.6% | 224 µg·h/mL | 5.81 mL/h/kg | 0.189 L/kg | 140 µg·h/mL | 6 nM | 79.6% |  | CCc1cc2ncc(CN3CC=C(c4ccc(C(=O)Nc5cnn(C6CCN(c7ccc8c(c7)C(=O)N(C7CCC(=O)NC7=O)C8=O)CC6)c5)nc4)CC3)cc2[nH]c1=O (stereo not shown) [Compound 58, N-(1-(1-(2-(2,6-dioxopiperidin-3-yl)-1,3-dioxoisoindolin-5-yl)piperidin-4-yl)-1H-pyrazol-4-yl)-1′-((7-ethyl-6-oxo-5,6-dihydro-1,5-naphthyridin-3-yl)methyl)-1′,2′,3′,6′-tetrahydro-[3,4′-bipyridine]-6-carboxamide] | 87.2% |
|  |  |  |  |  |  |  |  |  |  |  |  |  |  | 0.12 nM | CCc1cc2ncc(CN3CCN(c4ccc(C(=O)NC5CN(C6CCN(c7ccc8c(c7)C(=O)N(C7CCC(=O)NC7=O)C8=O)CC6)C5)nc4)CC3)cc2[nH]c1=O (stereo not shown) [Compound 5, N-(1-(1-(2-(2,6-dioxopiperidin-3-yl)-1,3-dioxoisoindolin-5-yl)piperidin-4-yl)azetidin-3-yl)-5-(4-((7-ethyl-6-oxo-5,6-dihydro-1,5-naphthyridin-3-yl)methyl)piperazin-1-yl)picolinamide] |  |
